These results are taken from patent publication US7264314B2, “Adrenocorticotropic hormone analogs and related methods” (priority 2004, dated 2007).

The experiment relates to ACTH-induced serum corticosterone in dexamethasone-suppressed mice. Put plainly: in vivo Serum Corticosteroid Inhibition Assay. On the set-up: species or system FVB/N mice. The note with it: for reduction in serum corticosterone levels: ACTH alone = 100%; for serum corticosterone level at 180 minutes: blood one hour later; for corticosterone induction as percent of that of wildtype ACTH: 1 hour after last injection. An excerpt:
An in vivo Serum Corticosteroid Inhibition Assay measures the level of corticosteroid or corticosterone in the blood stream of a subject after administering a compound having a first corticosteroid-producing biological activity and a test compound. The compound having the corticosteroid-producing biological activity can be any compound known to induce a detectable increase in corticosteroid production. The test compound can be administered before the corticosteroid-producing compound, in combination with the corticosteroid-producing compound, and/or after the corticosteroid-producing compound. The corticosteroid-producing compound is preferably ACTH, but can also be an ACTH analog with a known corticosteroid-producing biological activity. By performing a series of in vivo Serum Corticosteroid Inhibition Assays using ACTH analog test compounds, ACTH analogs that inhibit the production of corticosteroid relative to the corticosteroid-producing compound used can be identified. Preferably, the ACTH analogs identified in this manner inhibit the production of corticosteroid in the presence of endogenous unmodified ACTH.
The in vivo Serum Corticosteroid Inhibition Assay can include sequential administration of the test compound and the corticosteroid-producing compound by the following steps: first, an agent to suppress endogenous ACTH production was administered to a mouse subject, such as an intraperitoneal injection of dexamethasone; second, after waiting a suitable period of time for suppression of endogenous ACTH production (e.g., 1.5–2.0 hours), a test compound was administered to the mouse by a suitable method, such as intraperitoneal injection; third, after waiting a suitable period of time (e.g., 1 hour) for action of the test compound, a compound with corticosteroid-producing activity can be administered to the mouse by a suitable method, such as intraperitoneal injection; and fourth, after waiting a suitable period of time for the biological activity of both administered compounds to occur (e.g., 1 hour), a blood sample was taken from the subject and the level of serum corticosterone was determined by a suitable method, such as a competitive radioimmunoassay using ^125I RIA kit (ICN, Costa Mesa, Calif.). Optionally, steps two and three can be reversed (administering the corticosteroid-producing compound first, followed by administration of the test compound). The in vivo Serum Corticosteroid Inhibition Assay can also include co-administration of the test compound and the corticosteroid-producing compound by the following steps: first, an agent to suppress endogenous ACTH production was administered to a mouse subject, such as an intraperitoneal injection of dexamethasone; second, after waiting a suitable period of time for suppression of endogenous ACTH production (e.g., 1.5–2.0 hours), the corticosteroid-producing compound and a test compound were co-administered to the mouse by a suitable method, such as intraperitoneal injection; and third, after waiting a suitable period of time for the biological activity of both administered compounds to occur (e.g., 1 hour), a blood sample was taken from the subject and the level of serum corticosterone was determined by a suitable method, such as a competitive radioimmunoassay using ^125I RIA kit (ICN, Costa Mesa, Calif.). Also, in some embodiments, the first step in any in vivo Serum Corticosteroid Inhibition Assay can be replaced by a measurement of the initial endogenous corticosteroid or corticosteroid level in the blood of the subject in the manner of step four, instead of administering the agent to suppress ACTH production. Example 2 describes murine in vivo Serum Corticosteroid Inhibition Assays in detail.
A series of separate in vivo Serum Corticosteroid Inhibition Assays were performed to identify ACTH analogs that inhibit ACTH adrenal hormone production in vivo. […]

No end group written: not given here.

In the case of “N-Ser^1-Tyr-Ser-Met-Glu^5-His-Phe-Arg-Trp-Gly^10-Lys-Pro-Val-Gly-Lys^15-Arg-Ala-Ala-Trp-Val^20-Lys-Val-Tyr-Pro-Ac (SYSMEHFRWGKPVGKRAAWVKVYP; not fully specified (C-terminus); printed as N-Ser1-Tyr-Ser-Met-Glu5-His-Phe-Arg-Trp-Gly10-Lys-Pro-Val-Gly-Lys15-Arg-Ala-Ala-Trp-Val20-Lys-Val-Tyr-Pro-Ac) [AT814]”, the “reduction in serum corticosterone levels” value (ACTH analog 30 minutes before ACTH) was roughly 65% and the “reduction in serum corticosterone levels” value (ACTH analog concurrently with ACTH) is listed as roughly 90%. For the same substance, the “serum corticosterone level at 180 minutes” value by setting is: (ACTH analog at 90 minutes, mACTH(1–24) at 120 minutes after dexamethasone, listed as (KKRRP15-19KRAAW) mACTH(1–24)) 175 ± 27 ng/mL; (ACTH analog at 90 minutes, mACTH(1–24) at 120 minutes after dexamethasone, listed as (KKRRP15-19KRMW) mACTH(1–24)) 175 ± 27 ng/mL; (ACTH analog together with mACTH(1–24) at 120 minutes after dexamethasone) 51 ± 8 ng/mL; (ACTH analog together with mACTH(1–24) at 120 minutes after dexamethasone, listed as (KKRRP15-19KRAAW) mACTH(1–24)) 51 ± 8 ng/mL. The “corticosterone induction as percent of that of wildtype ACTH” value (applied 30 minutes before the ACTH injection) worked out at 35% and the “corticosterone induction as percent of that of wildtype ACTH” value (applied at the same time as the ACTH injection) came to 10%.
